# Data taken from patent US20240343692A1 (priority 2021, published 2024).
# How the values were obtained:
# [1] = molecular target: T1, 5-HT1A (Homo sapiens, UniProt P08908); assay: Radioligand binding at 5-HT1A(h) (agonist radioligand), Eurofins Cerep Panlabs; settings: human receptor, duplicate, read-out: Percent Inhibition of the Binding of a Specific Radioligand, 5-HT1A; for inhibition at 0.1 µM: % inh. at 100 nM; for inhibition at 1 µM: % inh. at 1.0 μM
# T1 sequence (P08908 1-422): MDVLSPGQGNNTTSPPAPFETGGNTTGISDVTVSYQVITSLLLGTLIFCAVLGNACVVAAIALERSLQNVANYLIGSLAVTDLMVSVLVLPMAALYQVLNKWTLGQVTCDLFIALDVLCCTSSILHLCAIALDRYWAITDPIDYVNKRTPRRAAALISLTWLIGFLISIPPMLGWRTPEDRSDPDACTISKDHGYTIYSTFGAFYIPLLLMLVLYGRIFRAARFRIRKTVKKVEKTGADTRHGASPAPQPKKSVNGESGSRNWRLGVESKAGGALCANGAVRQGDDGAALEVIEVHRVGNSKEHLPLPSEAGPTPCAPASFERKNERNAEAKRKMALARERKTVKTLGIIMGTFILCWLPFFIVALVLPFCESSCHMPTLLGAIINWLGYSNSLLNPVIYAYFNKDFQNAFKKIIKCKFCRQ
# Source text: FIG. 1. Histogram for 5-HT1A(h) (agonist radioligand).
# [2] = molecular target: 5-HT2A (Homo sapiens, UniProt P28223); assay: Radioligand binding at 5-HT2A(h) (agonist radioligand), Eurofins Cerep Panlabs; settings: human receptor, duplicate, read-out: Percent Inhibition of the Binding of a Specific Radioligand, 5-HT2A; for inhibition at 0.1 µM: % inh. at 100 nM; for inhibition at 1 µM: % inh. at 1.0 μM
# Chain of 5-HT2A (P28223 whole entry, looked up): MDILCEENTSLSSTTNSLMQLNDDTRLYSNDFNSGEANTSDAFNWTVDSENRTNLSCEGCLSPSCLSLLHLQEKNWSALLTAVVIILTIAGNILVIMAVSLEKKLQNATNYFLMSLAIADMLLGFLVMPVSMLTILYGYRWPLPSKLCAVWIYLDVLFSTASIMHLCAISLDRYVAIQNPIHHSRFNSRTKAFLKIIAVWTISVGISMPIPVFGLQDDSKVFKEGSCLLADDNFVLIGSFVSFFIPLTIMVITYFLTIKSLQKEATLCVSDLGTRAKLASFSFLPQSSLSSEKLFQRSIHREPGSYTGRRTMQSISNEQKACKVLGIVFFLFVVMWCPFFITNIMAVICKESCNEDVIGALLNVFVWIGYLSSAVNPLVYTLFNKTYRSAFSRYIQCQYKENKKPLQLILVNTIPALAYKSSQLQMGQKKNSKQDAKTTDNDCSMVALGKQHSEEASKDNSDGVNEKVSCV
# Source text: FIG. 2. Histogram for 5-HT2A(h) (agonist radioligand).
# [3] = molecular target: 5-HT2B (Homo sapiens, UniProt P41595); assay: Radioligand binding at 5-HT2B(h) (agonist radioligand), Eurofins Cerep Panlabs; settings: human receptor, duplicate, read-out: Percent Inhibition of the Binding of a Specific Radioligand, 5-HT2B; for inhibition at 0.1 µM: % inh. at 100 nM; for inhibition at 1 µM: % inh. at 1.0 μM
# Chain of 5-HT2B (P41595 whole entry): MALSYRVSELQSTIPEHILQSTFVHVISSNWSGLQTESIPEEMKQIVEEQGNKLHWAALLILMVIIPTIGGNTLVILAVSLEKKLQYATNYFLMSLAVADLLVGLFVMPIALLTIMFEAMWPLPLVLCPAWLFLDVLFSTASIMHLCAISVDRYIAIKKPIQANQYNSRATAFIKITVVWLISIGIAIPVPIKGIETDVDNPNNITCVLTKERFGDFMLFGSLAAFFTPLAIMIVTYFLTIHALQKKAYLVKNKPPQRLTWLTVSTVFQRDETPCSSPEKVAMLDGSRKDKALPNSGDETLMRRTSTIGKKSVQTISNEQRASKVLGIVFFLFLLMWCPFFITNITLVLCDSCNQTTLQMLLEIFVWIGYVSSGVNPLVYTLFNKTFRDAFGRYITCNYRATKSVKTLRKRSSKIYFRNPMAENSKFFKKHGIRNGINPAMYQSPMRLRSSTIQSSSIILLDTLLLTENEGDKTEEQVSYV
# Source text: FIG. 3. Histogram for 5-HT2B(h) (agonist radioligand).
# [4] = molecular target: T2, 5-HT2C (Homo sapiens, UniProt P28335); assay: Radioligand binding at 5-HT2C(h) (agonist radioligand), Eurofins Cerep Panlabs; settings: human receptor, duplicate, read-out: Percent Inhibition of the Binding of a Specific Radioligand, 5-HT2C; for inhibition at 0.1 µM: % inh. at 100 nM; for inhibition at 1 µM: % inh. at 1.0 μM
# T2 sequence (P28335 33-458): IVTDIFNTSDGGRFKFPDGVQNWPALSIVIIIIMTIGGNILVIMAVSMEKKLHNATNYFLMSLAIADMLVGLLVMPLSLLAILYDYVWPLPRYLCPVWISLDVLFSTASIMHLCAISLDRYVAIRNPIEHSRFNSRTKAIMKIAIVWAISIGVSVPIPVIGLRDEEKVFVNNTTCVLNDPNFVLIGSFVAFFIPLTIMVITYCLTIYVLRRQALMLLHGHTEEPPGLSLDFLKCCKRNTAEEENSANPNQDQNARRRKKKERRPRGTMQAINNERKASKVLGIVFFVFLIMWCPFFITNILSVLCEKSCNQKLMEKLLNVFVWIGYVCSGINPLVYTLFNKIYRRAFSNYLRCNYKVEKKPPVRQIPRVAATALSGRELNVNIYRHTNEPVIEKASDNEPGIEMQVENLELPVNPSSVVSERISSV
# Source text: FIG. 4. Histogram for 5-HT2C(h) (agonist radioligand).
# [5] = system: Adrenergic α1; assay: CNS receptor radioligand binding, Adrenergic α1; settings: 10 μM; rat receptor data
# [6] = molecular target: Dopamine D1 (Homo sapiens, UniProt P21728); assay: CNS receptor radioligand binding, Dopamine D1; settings: 10 μM
# Chain of Dopamine D1 (P21728 whole entry): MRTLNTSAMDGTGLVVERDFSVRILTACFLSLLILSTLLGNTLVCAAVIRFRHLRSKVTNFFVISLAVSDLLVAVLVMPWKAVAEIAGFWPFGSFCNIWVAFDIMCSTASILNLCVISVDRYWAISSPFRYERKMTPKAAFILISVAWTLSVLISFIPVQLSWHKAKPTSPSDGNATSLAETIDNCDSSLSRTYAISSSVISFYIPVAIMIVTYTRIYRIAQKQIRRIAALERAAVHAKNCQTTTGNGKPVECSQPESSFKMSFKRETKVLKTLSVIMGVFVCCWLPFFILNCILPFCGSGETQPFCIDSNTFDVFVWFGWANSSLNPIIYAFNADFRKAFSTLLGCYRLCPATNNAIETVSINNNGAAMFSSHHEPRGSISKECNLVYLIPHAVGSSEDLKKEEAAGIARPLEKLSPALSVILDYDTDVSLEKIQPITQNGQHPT
# [7] = molecular target: Dopamine D2L (Homo sapiens, UniProt P14416); assay: CNS receptor radioligand binding, Dopamine D2L; settings: 10 μM
# Chain of Dopamine D2L (P14416 whole entry): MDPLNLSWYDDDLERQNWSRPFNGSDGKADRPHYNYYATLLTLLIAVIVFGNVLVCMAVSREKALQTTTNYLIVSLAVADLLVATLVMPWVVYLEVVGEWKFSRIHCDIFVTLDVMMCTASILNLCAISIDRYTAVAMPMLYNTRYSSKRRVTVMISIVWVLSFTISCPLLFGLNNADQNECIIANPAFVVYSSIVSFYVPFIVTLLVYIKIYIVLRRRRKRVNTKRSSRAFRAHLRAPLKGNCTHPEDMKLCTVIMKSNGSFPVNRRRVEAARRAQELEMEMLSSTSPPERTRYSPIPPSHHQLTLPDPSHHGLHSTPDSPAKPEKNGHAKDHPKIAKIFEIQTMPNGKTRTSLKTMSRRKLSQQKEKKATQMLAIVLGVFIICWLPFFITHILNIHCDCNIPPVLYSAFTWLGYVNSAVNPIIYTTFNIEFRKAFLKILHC
# [8] = molecular target: Dopamine D3 (Homo sapiens, UniProt P35462); assay: CNS receptor radioligand binding, Dopamine D3
# Chain of Dopamine D3 (P35462 whole entry): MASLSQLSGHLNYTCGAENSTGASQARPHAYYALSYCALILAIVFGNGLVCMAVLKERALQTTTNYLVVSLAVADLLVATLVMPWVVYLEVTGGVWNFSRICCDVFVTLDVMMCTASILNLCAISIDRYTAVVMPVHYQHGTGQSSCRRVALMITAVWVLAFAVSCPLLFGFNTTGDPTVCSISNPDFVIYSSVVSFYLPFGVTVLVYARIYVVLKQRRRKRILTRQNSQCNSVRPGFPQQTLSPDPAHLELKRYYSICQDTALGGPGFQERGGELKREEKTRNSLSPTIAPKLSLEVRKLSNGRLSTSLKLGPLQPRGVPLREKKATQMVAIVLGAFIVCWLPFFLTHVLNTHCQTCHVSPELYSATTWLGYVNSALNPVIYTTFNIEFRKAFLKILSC
# [9] = system: GABAA; assay: CNS receptor radioligand binding, GABAA; settings: 10 μM; rat receptor data
# [10] = molecular target: Histamine H1 (Homo sapiens, UniProt P35367); assay: CNS receptor radioligand binding, Histamine H1 (human); settings: 10 μM
# Chain of Histamine H1 (P35367 whole entry): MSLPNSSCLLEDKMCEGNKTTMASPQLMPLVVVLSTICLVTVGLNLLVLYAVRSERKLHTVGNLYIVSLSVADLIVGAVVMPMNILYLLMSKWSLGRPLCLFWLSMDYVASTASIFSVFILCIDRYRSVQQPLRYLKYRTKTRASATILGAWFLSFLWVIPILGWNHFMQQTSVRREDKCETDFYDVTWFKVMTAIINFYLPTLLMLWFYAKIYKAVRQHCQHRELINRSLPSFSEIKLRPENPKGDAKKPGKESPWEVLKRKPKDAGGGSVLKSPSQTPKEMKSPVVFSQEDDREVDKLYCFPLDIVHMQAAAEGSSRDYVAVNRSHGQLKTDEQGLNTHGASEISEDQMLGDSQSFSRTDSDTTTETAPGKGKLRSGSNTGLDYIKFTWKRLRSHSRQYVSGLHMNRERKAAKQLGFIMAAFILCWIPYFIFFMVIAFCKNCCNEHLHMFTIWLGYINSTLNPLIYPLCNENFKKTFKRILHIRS
# [11] = molecular target: T3, Muscarinic M2 (Homo sapiens, UniProt P08172); assay: CNS receptor radioligand binding, Muscarinic M2; settings: 10 μM
# T3 sequence (P08172 1-466): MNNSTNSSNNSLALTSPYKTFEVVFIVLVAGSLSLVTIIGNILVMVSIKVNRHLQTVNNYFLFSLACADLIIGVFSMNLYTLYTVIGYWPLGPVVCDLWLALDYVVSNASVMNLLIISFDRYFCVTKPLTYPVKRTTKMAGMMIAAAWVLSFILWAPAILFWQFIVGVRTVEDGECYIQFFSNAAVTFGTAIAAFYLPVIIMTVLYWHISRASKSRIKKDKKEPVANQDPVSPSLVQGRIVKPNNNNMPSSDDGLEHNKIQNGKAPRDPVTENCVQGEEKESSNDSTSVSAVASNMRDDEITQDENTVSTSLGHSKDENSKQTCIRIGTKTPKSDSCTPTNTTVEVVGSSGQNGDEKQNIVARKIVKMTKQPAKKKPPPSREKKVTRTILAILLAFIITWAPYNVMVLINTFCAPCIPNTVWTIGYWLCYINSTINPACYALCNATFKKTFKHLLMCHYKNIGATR
# [12] = molecular target: T4, Muscarinic M5 (Homo sapiens, UniProt P08912); assay: CNS receptor radioligand binding, Muscarinic M5; settings: 10 μM
# T4 sequence (P08912 1-532): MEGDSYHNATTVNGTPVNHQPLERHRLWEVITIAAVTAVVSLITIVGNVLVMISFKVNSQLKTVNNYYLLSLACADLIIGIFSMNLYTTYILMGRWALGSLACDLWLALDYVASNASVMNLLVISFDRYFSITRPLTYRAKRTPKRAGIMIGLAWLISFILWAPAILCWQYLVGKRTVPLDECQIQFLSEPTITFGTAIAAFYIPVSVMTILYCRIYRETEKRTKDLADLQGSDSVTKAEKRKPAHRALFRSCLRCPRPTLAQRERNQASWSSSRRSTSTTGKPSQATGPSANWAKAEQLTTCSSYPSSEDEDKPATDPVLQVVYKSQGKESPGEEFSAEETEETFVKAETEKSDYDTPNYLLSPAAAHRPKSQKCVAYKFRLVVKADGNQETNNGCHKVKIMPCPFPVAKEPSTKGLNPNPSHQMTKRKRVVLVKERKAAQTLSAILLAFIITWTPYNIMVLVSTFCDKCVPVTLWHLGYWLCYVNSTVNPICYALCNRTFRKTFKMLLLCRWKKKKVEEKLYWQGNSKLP
# [13] = molecular target: Nicotinic Acetylcholine α4β2 (Homo sapiens, UniProt P17787+P43681); assay: CNS receptor radioligand binding, Nicotinic Acetylcholine α4β2; settings: 10 μM
# Chain of Nicotinic Acetylcholine α4β2 (P43681 29-627 limits assumed): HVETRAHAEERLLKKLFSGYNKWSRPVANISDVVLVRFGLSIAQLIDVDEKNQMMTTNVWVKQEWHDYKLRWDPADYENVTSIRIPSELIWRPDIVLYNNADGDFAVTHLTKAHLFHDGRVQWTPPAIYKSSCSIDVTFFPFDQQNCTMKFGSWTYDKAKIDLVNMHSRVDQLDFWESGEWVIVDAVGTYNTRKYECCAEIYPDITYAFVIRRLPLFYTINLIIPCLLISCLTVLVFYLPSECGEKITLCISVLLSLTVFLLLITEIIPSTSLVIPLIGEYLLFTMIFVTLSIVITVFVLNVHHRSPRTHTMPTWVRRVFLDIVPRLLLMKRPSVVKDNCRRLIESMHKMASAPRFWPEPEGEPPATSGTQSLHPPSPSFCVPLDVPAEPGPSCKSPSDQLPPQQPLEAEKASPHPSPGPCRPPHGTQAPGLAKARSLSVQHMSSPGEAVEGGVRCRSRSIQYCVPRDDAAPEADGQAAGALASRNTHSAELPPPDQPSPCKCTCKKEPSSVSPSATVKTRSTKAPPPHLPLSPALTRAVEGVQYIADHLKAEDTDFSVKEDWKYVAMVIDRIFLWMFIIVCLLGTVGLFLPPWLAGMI
# Chain of Nicotinic Acetylcholine α4β2 (P17787 26-502): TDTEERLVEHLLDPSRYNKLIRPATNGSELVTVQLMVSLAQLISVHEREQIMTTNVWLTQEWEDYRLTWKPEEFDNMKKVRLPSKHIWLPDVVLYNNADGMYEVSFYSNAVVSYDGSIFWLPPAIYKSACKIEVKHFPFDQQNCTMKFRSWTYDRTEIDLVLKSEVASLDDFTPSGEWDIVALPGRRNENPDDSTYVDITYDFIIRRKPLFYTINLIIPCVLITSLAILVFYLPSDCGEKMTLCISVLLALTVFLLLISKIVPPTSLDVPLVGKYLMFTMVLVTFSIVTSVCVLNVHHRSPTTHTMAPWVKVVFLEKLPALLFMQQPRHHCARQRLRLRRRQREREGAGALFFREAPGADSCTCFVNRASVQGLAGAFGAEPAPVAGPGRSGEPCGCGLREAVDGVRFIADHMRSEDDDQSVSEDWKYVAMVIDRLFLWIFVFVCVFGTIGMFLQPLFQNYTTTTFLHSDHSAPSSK
# [14] = molecular target: Opiate κ (Homo sapiens, UniProt P41145); assay: CNS receptor radioligand binding, Opiate κ; settings: 10 μM
# Chain of Opiate κ (P41145 whole entry): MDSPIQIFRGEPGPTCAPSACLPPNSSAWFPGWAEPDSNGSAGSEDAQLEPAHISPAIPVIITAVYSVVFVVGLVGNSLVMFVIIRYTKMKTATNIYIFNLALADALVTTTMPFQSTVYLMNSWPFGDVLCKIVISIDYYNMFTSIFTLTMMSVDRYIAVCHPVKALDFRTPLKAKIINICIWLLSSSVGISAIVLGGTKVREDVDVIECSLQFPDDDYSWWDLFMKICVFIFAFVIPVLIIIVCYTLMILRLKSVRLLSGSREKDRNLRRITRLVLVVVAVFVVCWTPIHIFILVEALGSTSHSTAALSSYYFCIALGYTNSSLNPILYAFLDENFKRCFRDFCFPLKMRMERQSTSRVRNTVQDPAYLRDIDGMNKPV
# [15] = molecular target: T5, Orexin OX1 (Homo sapiens, UniProt O43613); assay: CNS receptor radioligand binding, Orexin OX1; settings: 10 μM
# T5 sequence (O43613 1-425): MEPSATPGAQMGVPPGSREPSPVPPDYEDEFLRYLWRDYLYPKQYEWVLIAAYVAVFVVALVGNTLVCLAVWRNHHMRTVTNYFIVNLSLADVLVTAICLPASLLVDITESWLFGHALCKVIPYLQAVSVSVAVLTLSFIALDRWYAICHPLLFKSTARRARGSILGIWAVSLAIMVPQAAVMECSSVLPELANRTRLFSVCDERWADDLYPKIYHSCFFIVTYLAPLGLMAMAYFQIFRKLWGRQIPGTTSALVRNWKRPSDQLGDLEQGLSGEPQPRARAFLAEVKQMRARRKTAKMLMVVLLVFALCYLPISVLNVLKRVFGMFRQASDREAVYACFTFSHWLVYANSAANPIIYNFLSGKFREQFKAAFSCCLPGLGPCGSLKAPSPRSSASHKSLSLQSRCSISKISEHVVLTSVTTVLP
# [16] = molecular target: T6, Serotonin 5-HT1A (Homo sapiens, UniProt P08908); assay: CNS receptor radioligand binding, Serotonin 5-HT1A
# T6 sequence (P08908 1-422): T1 sequence (P08908 1-422)
# [17] = molecular target: T7, Serotonin 5-HT2A (Homo sapiens, UniProt P28223); assay: CNS receptor radioligand binding, Serotonin 5-HT2A
# T7 sequence (P28223 whole entry, looked up): as the sequence (P28223 whole entry, looked up) above
# [18] = molecular target: T6, Serotonin 5-HT1A; assay: Receptor activation potency, Serotonin 5-HT1A; type: biochemical; settings: 5-point concentration response curves, duplicate
# [19] = molecular target: T7, Serotonin 5-HT2A; assay: Receptor activation potency, Serotonin 5-HT2A; type: biochemical; settings: 5-point concentration response curves, duplicate
# [20] = molecular target: Serotonin 5-HT2B (Homo sapiens, UniProt P41595); assay: Receptor activation potency, Serotonin 5-HT2B; type: biochemical; settings: 5-point concentration response curves, duplicate
# Chain of Serotonin 5-HT2B (P41595 whole entry): as the sequence (P41595 whole entry) above
# [21] = molecular target: T8, Serotonin 5-HT2C (Homo sapiens, UniProt P28335); assay: Receptor activation potency, Serotonin 5-HT2C; type: biochemical; settings: 5-point concentration response curves, duplicate
# T8 sequence (P28335 33-458): T2 sequence (P28335 33-458)
# [22] = molecular target: Sigma-1 (Homo sapiens, UniProt Q99720); assay: Inhibition constant, Sigma-1; type: binding; settings: human receptor; 5-point concentration response curves; duplicate; read-out: inhibition constants Ki, Sigma-1
# Chain of Sigma-1 (Q99720 whole entry): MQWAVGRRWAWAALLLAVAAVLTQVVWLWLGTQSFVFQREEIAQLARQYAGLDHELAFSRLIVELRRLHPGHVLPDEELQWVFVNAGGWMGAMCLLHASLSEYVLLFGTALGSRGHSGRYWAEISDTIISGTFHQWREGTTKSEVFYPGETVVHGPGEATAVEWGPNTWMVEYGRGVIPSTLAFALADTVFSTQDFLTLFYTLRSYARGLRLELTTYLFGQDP
Compound,inhibition at 0.1 µM [1],inhibition at 1 µM [1],inhibition at 0.1 µM [2],inhibition at 1 µM [2],inhibition at 0.1 µM [3],inhibition at 1 µM [3],inhibition at 0.1 µM [4],inhibition at 1 µM [4],"Percent Inhibition of Specific Binding of a Radioligand Standard, Adrenergic α1 [5]","Percent Inhibition of Specific Binding of a Radioligand Standard, Dopamine D1 [6]","Percent Inhibition of Specific Binding of a Radioligand Standard, Dopamine D2L [7]","Percent Inhibition of Specific Binding of a Radioligand Standard, Dopamine D3 ([8]; 1 μM)","Percent Inhibition of Specific Binding of a Radioligand Standard, Dopamine D3 ([8]; 10 μM)","Percent Inhibition of Specific Binding of a Radioligand Standard, GABAA [9]","Percent Inhibition of Specific Binding of a Radioligand Standard, Histamine H1 [10]","Percent Inhibition of Specific Binding of a Radioligand Standard, Muscarinic M2 [11]","Percent Inhibition of Specific Binding of a Radioligand Standard, Muscarinic M5 [12]","Percent Inhibition of Specific Binding of a Radioligand Standard, Nicotinic Acetylcholine α4β2 [13]","Percent Inhibition of Specific Binding of a Radioligand Standard, Opiate κ [14]","Percent Inhibition of Specific Binding of a Radioligand Standard, Orexin OX1 [15]",also measured
"CN1C[C@H](CO)C=C2c3cccc4[nH]cc(c34)C[C@H]21 [(+)-1, (+)-lysergol]",94%,99%,96%,97%,96%,99%,97%,99%,,,,,,,,,,,,,
"CN1C[C@@H](CO)C=C2c3cccc4[nH]cc(c34)C[C@H]21 [(+)-2, (+)-isolysergol]",96%,99%,92%,99%,90%,93%,91%,97%,,,,,,,,,,,,,
"CN1C[C@@H](CO)C=C2c3cccc4[nH]cc(c34)C[C@@H]21 [(−)-1, (−)-lysergol]",27%,67%,12%,62%,34%,87%,41%,86%,,,,,,,,,,,,,
"CN1C[C@H](CO)C=C2c3cccc4[nH]cc(c34)C[C@@H]21 [(−)-2, (−)-isolysergol]",9%,19%,0%,20%,3%,16%,5%,44%,,,,,,,,,,,,,
(+)-Cycloclavine,,,,,,,,,57 % inh,91 % inh,81 % inh,75 % inh,93 % inh,9 % inh,17 % inh,0 % inh,11 % inh,9 % inh,73 % inh,23 % inh,"Percent Inhibition of Specific Binding of a Radioligand Standard, Serotonin 5-HT1A ([16]; 1 μM): 97 % inh; Percent Inhibition of Specific Binding of a Radioligand Standard, Serotonin 5-HT1A ([16]; 10 μM): 97 % inh; Percent Inhibition of Specific Binding of a Radioligand Standard, Serotonin 5-HT2A ([17]; 1 μM): 100 % inh; Percent Inhibition of Specific Binding of a Radioligand Standard, Serotonin 5-HT2A ([17]; 10 μM): 100 % inh; EC50 [18]: 0.14 µM; EC50 [19]: ~10 µM; EC50 [20]: > 20 µM; EC50 [21]: 0.016 µM; Ki [22]: ~50 µM"
(−)-Cycloclavine,,,,,,,,,59 % inh,30 % inh,14 % inh,32 % inh,64 % inh,0 % inh,27 % inh,0 % inh,15 % inh,11 % inh,75 % inh,6 % inh,"Percent Inhibition of Specific Binding of a Radioligand Standard, Serotonin 5-HT1A ([16]; 1 μM): 73 % inh; Percent Inhibition of Specific Binding of a Radioligand Standard, Serotonin 5-HT1A ([16]; 10 μM): 91 % inh; Percent Inhibition of Specific Binding of a Radioligand Standard, Serotonin 5-HT2A ([17]; 1 μM): 51 % inh; Percent Inhibition of Specific Binding of a Radioligand Standard, Serotonin 5-HT2A ([17]; 10 μM): 89 % inh; EC50 [18]: ~5 µM; EC50 [19]: > 50 µM; EC50 [20]: > 20 µM; EC50 [21]: 3.2 µM; Ki [22]: 8.3 µM"
